# Measurements: BindingDB's records for doi:10.1111/j.1747-0285.2010.01010.x (University of Washington, 2010)
# Biological target: Thymidylate synthase (Homo sapiens, UniProt P04818)
# Assay: Tritium Release Assay
# Conditions: pH 7.5; 4 °C
# Thymidylate synthase, sequence (P04818 whole entry): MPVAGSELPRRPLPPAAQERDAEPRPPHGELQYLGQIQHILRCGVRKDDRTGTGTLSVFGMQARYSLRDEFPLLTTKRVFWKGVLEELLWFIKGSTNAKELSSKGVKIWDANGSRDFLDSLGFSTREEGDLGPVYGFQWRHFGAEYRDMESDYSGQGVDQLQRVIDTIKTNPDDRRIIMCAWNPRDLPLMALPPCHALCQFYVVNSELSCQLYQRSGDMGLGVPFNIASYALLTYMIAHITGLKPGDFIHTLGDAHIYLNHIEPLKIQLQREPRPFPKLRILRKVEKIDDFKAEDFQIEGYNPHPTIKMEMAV
SMILES,IC50,Kd
O=C(O)c1ccc(/N=C/c2ccc(-c3cccs3)s2)cc1 [MV1556],240 µM,
Cc1c(C(=O)NCCc2cccs2)nnn1-c1ccccc1 [MV1555],30 µM,5 µM
CCN1C(=O)c2cccc3c(NC(=O)c4cccs4)ccc1c23 [MV1554],160 µM,
Cc1onc(-c2ccccc2)c1C(=O)NCc1cccs1 [MV1581],> 500 µM,
CC(=NNC(=O)Cc1c(C)[nH]c2ccc(C)cc12)c1cccs1 [MV1561],160 µM,
O=C(NCCc1c[nH]c2ccccc12)/C(=C\c1cccs1)NC(=O)c1cccs1 [MV1570],70 µM,2 µM
CCc1ccc(/C=N/NC(=O)c2c[nH]c3ccccc23)s1 [MV1565],70 µM,1 µM
CC(OC(=O)c1cc2occc2n1C)C(=O)NCc1cccs1 (stereo not given) [MV1574],> 500 µM,

# Now from value to molecule:
IC50,Kd,SMILES
140 µM,,CCOC(=O)c1cc2occc2n1CC(=O)N1CCc2ccccc21 [MV1576]
> 500 µM,,CCOC(=O)c1cc2oc(C)cc2n1CC#N [MV1578]
115 µM,,Cc1cc(C(=O)CSc2nnc(N)s2)c(C)n1Cc1ccco1 [MV1588]
115 µM,,O=C(NCc1cccs1)c1nc(-c2ccccc2)no1 [MV1586]
